Here are results for 26 compounds from patent publication US5132111A (priority 1990, dated 1992).

Non-standard residues stand in square brackets, D forms with d. Residues, ends and D or L forms follow the SMILES beside them. hArg = N=C(N)NCCCC[C@H](N)C(=O)O; Nle = CCCC[C@H](N)C(=O)O

The first assay relates to secretion of ACTH and β-END-LI.
As to `CCCC[C@H](N)C(=O)N[C@@H](CC(=O)O)C(=O)N[C@@H](CC(C)C)C(=O)N[C@@H](CO)C(=O)N[C@@H](Cc1ccccc1)C(=O)N[C@@H](Cc1c[nH]cn1)C(=O)N[C@@H](CC(C)C)C(=O)N[C@@H](CC(C)C)C(=O)N[C@@H](CCCNC(=N)N)C(=O)N[C@@H](CCC(=O)O)C(=O)N[C@H](C(=O)N[C@@H](CC(C)C)C(=O)N[C@@H](CCC(=O)O)C(=O)N[C@@H](CCSC)C(=O)N[C@@H](C)C(=O)N[C@@H](CCCNC(=N)N)C(=O)N[C@@H](C)C(=O)N[C@@H](CCC(=O)O)C(=O)N[C@@H](CCC(N)=O)C(=O)N[C@@H](CC(C)C)C(=O)N[C@@H](C)C(=O)N[C@@H](CCC(N)=O)C(=O)N[C@@H](CCC(N)=O)C(=O)N[C@@H](C)C(=O)N[C@@H](Cc1c[nH]cn1)C(=O)N[C@@H](CC(C)C)C(=O)N[C@@H](CC(N)=O)C(=O)N[C@@H](CCCNC(=N)N)C(=O)N[C@@H](CCCNC(=N)N)C(=O)N[C@@H](CC(C)C)C(=O)N[C@@H](CCSC)C(=O)N[C@@H](CCC(=O)O)C(=O)N[C@H](C(=O)N[C@H](C(N)=O)[C@@H](C)CC)[C@@H](C)CC)C(C)C` (H-[Nle]DLSFHLLREVLEMARAEQLAQQAHLNRRLMEII-NH2), the “secretion of ACTH (inhibition)” value is “inhibits” and the “secretion of β-END-LI (inhibition)” value is reported as “inhibits”.

In the case of `CCCC[C@H](NC(=O)[C@H](CCC(=O)O)NC(=O)[C@H](CC(C)C)NC(=O)[C@H](CCCC)NC(=O)[C@H](CCC(=O)O)NC(=O)[C@H](CCCNC(=N)N)NC(=O)[C@H](CC(C)C)NC(=O)[C@H](CC(C)C)NC(=O)[C@H](CCC(=O)O)NC(=O)[C@H](Cc1ccccc1)NC(=O)[C@@H](NC(=O)[C@H](CC(C)C)NC(=O)[C@@H](N)CC(=O)O)[C@@H](C)O)C(=O)N[C@@H](C)C(=O)N[C@@H](CCCNC(=N)N)C(=O)N[C@@H](C)C(=O)N[C@@H](CCC(=O)O)C(=O)N[C@@H](CCC(N)=O)C(=O)N[C@@H](CCC(=O)O)C(=O)N[C@@H](C)C(=O)N[C@@H](CCC(=O)O)C(=O)N[C@@H](CCC(N)=O)C(=O)N[C@@H](C)C(=O)N[C@@H](C)C(=O)N[C@@H](CC(C)C)C(=O)N[C@@H](CC(N)=O)C(=O)N[C@@H](CCCNC(=N)N)C(=O)N[C@@H](CC(C)C)C(=O)N[C@@H](CC(C)C)C(=O)N[C@@H](CC(C)C)C(=O)N[C@@H](CCC(=O)O)C(=O)N[C@@H](CCC(=O)O)C(=O)N[C@@H](C)C(N)=O` [[Glu^13,Nle^18,21]-AAHC(9-41)] (H-DLTFELLRE[Nle]LE[Nle]ARAEQEAEQAALNRLLLEEA-NH2), the “secretion of ACTH (inhibition)” value is listed as “inhibits” and the “secretion of β-END-LI (inhibition)” value was “inhibits”.

Regarding `CCCC[C@H](NC(=O)[C@H](CCC(=O)O)NC(=O)[C@H](CC(C)C)NC(=O)[C@H](CCCC)NC(=O)[C@H](CCC(=O)O)NC(=O)[C@H](CCCNC(=N)N)NC(=O)[C@H](CC(C)C)NC(=O)[C@H](CC(C)C)NC(=O)[C@H](Cc1c[nH]cn1)NC(=O)[C@H](Cc1ccccc1)NC(=O)[C@@H](NC(=O)[C@H](CC(C)C)NC(=O)[C@H](CC(=O)O)NC(=O)[C@@H](N)CC(C)C)[C@@H](C)O)C(=O)N[C@@H](C)C(=O)N[C@@H](CCCNC(=N)N)C(=O)N[C@@H](C)C(=O)N[C@@H](CCC(=O)O)C(=O)N[C@@H](CCC(N)=O)C(=O)N[C@@H](CCC(=O)O)C(=O)N[C@@H](C)C(=O)N[C@@H](CCC(=O)O)C(=O)N[C@@H](CCC(N)=O)C(=O)N[C@@H](C)C(=O)N[C@@H](C)C(=O)N[C@@H](CC(C)C)C(=O)N[C@@H](CC(N)=O)C(=O)N[C@@H](CCCNC(=N)N)C(=O)N[C@@H](CC(C)C)C(=O)N[C@@H](CC(C)C)C(=O)N[C@@H](CC(C)C)C(=O)N[C@@H](CCC(=O)O)C(=O)N[C@@H](CCC(=O)O)C(=O)N[C@@H](C)C(N)=O` [[Nle^18,21]-AAHC(8-41)] (H-LDLTFHLLRE[Nle]LE[Nle]ARAEQEAEQAALNRLLLEEA-NH2), the “secretion of ACTH (inhibition)” value is reported as “inhibits” and the “secretion of β-END-LI (inhibition)” value is reported as “inhibits”.

The subject of a further assay is cultured rat pituitary cells. Type of assay: cell-based.
Turning to `CCCC[C@H](NC(=O)[C@H](CCC(=O)O)NC(=O)[C@H](CC(C)C)NC(=O)[C@H](CCCC)NC(=O)[C@H](CCC(=O)O)NC(=O)[C@H](CCCNC(=N)N)NC(=O)[C@H](CC(C)C)NC(=O)[C@H](CC(C)C)NC(=O)[C@H](Cc1c[nH]cn1)NC(=O)[C@H](Cc1ccccc1)NC(=O)[C@@H](NC(=O)[C@H](CC(C)C)NC(=O)[C@H](CC(=O)O)NC(=O)[C@H](CC(C)C)NC(=O)[C@H](CO)NC(=O)[C@@H](NC(=O)[C@@H]1CCCN1)[C@@H](C)CC)[C@@H](C)O)C(=O)N[C@@H](C)C(=O)N[C@@H](CCCNC(=N)N)C(=O)N[C@@H](C)C(=O)N[C@@H](CCC(=O)O)C(=O)N[C@@H](CCC(N)=O)C(=O)N[C@@H](CCC(=O)O)C(=O)N[C@@H](C)C(=O)N[C@@H](CCC(=O)O)C(=O)N[C@@H](CCC(N)=O)C(=O)N[C@@H](C)C(=O)N[C@@H](C)C(=O)N[C@@H](CC(C)C)C(=O)N[C@@H](CC(N)=O)C(=O)N[C@@H](CCCNC(=N)N)C(=O)N[C@@H](CC(C)C)C(=O)N[C@@H](CC(C)C)C(=O)N[C@@H](CC(C)C)C(=O)N[C@@H](CCC(=O)O)C(=O)N[C@@H](CCC(=O)O)C(=O)N[C@@H](C)C(N)=O` [[Nle^18,21, ]-AAHC(5-41)] (H-PISLDLTFHLLRE[Nle]LE[Nle]ARAEQEAEQAALNRLLLEEA-NH2), the “secretion of ACTH” value was “stimulates” and the “secretion of β-endorphin (β-END-LI)” value is given as “stimulates”.

For “H-GEEPPISLDLTFHLLREVLEMARAEQLAQQAHLNRRLMEEI-NH2 [[Gly^1, Leu^33, Glu^40]-rCRF]”, the “secretion of ACTH” value is reported as “stimulates” and the “secretion of β-endorphin (β-END-LI)” value is recorded as “stimulates”.

As to “H-PPISLDLTFHLLREVLEMARAEQLAEQAHSNRRYMEEI-NH2”, the “secretion of ACTH” value is on record as “stimulates” and the “secretion of β-endorphin (β-END-LI)” value is listed as “stimulates”.

Consider “H-PPISLDLTFHLLREVLEMARAEQLAQQAHLNRRLMEEI-NH2”, for which the “secretion of ACTH” value is “stimulates” and the “secretion of β-endorphin (β-END-LI)” value is reported as “stimulates”.

For the compound “H-SEEPPISLDLTFHLLREVLEMTRAEQLAEQAHSNRRLMEEI-NH2 [[Thr^22, Glu^29,40, Arg^36]-rCRF]”, the “secretion of ACTH” value is “stimulates” and the “secretion of β-endorphin (β-END-LI)” value is given as “stimulates”.

Turning to “H-SEEPPISLDLTFHLLREVLE[Nle]ARAEQLAEQAHSNRRL[Nle]EII-NH2 [[Nle^21,38, Glu^29, Arg^36]-rCRF]”, the “secretion of ACTH” value was “stimulates” and the “secretion of β-endorphin (β-END-LI)” value is “stimulates”.

As to “H-SEEPPISLDLTFHLLREVLE[Nle]ARAEQLAQQAYLNRRL[Nle]EEI-NH2”, the “secretion of ACTH” value is on record as “stimulates” and the “secretion of β-endorphin (β-END-LI)” value is “stimulates”.

As to “H-SEEPPISLDLTFHLLREVLE[Nle]A[hArg]AEQLAQQAHLNRRLMEE[Nle]-NH2”, the “secretion of ACTH” value is recorded as “stimulates” and the “secretion of β-endorphin (β-END-LI)” value is reported as “stimulates”.

As for “H-SEEPPISLDLTLELLREMLEME[hArg]AEREAEQAALNRLLLEEA-NH2”, the “secretion of ACTH” value is on record as “stimulates” and the “secretion of β-endorphin (β-END-LI)” value is on record as “stimulates”.

On to “H-SEEPPISLELTFHLLREVLE[Nle]ARAEQLAEQAHLNRRL[Nle]EII-NH2”, for which the “secretion of ACTH” value is reported as “stimulates” and the “secretion of β-endorphin (β-END-LI)” value is given as “stimulates”.

For “H-SEEPPIS[Nle]DLSFHLLREVLEMARAEQLAQQAHLNRRLMEEI-NH2”, the “secretion of ACTH” value is given as “stimulates” and the “secretion of β-endorphin (β-END-LI)” value is “stimulates”.

For the compound “H-SQEPPISLDLTFALLREMLEMARAEQEAEQAALNRLLLEEA-NH2 [[Ala13]-AAHC]”, the “secretion of ACTH” value was “stimulates” and the “secretion of β-endorphin (β-END-LI)” value is “stimulates”.

For “H-SQEPPISLDLTFHLLREMLEMARAEQEAEQAALNRLLLEEA-NH2 [AAHC]”, the “secretion of ACTH” value is on record as “biologically potent to stimulate the secretion” and the “secretion of β-endorphin (β-END-LI)” value is “biologically potent to stimulate the secretion”.

“H-SQEPPISLDLTFHLLREVLEMARAEQLAEQAHSNRRLLEII-NH2 [[Gln^2, Glu^29, Leu^38]-rCRF]”: the “secretion of ACTH” value is reported as “stimulates” and the “secretion of β-endorphin (β-END-LI)” value was “stimulates”.

For the compound “H-SQEPPISLDLTFHLLREVLEMTRADQLAQQAHSNRRLLDIA-NH2 [[Arg^23,36]-oCRF]”, the “secretion of ACTH” value was “stimulates” and the “secretion of β-endorphin (β-END-LI)” value is given as “stimulates”.

“H-SQEPPISLDLTFHLLREVLE[Nle]TRADQLAQQAHSNRRLLDIA-NH2 [[Nle^21, Arg^23,36]-oCRF]”: the “secretion of ACTH” value is “stimulates” and the “secretion of β-endorphin (β-END-LI)” value is on record as “stimulates”.

Turning to “H-SQEPPISLDLTFHLLRE[Nle]LE[Nle]ARAEQEAEQAALNRLLLEEA-NH2 [[Nle^18, 21]-AAHC]”, the “secretion of ACTH” value is “stimulates” and the “secretion of β-endorphin (β-END-LI)” value is listed as “stimulates”.

“H-SQEPPISLDLTFHLLRE[Nle]LE[Nle]TRADQLRQQAHSNRRLLDIA-NH2 [[Nle^18,21,Arg^23,28,36]-oCRF]”: the “secretion of ACTH” value was “stimulates” and the “secretion of β-endorphin (β-END-LI)” value is recorded as “stimulates”.

“H-SQEPPISLELTFHLLRE[Nle]LE[Nle]ARAEQEAEQAALNRLLLEEA-NH2 [[Glu^9, Nle^18, 21]-AAHC]”: the “secretion of ACTH” value is “stimulates” and the “secretion of β-endorphin (β-END-LI)” value was “stimulates”.

For “H-SQE[dP]PISLDLTFHLLRE[Nle]LE[Nle]ARAEQEAEQAALNRLLLEEA-NH2 [[D-Pro^4, Nle^18,21]-AAHC]”, the “secretion of ACTH” value is “stimulates” and the “secretion of β-endorphin (β-END-LI)” value was “stimulates”.

For the compound “H-SQ[dY][dP]PISLDLTFHLLRE[Nle]LE[Nle]ARAEQEAEQAALNRLLLEEA-NH2 [[D-Tyr^3, D-Pro^4, Nle^18, 21]-AAHC]”, the “secretion of ACTH” value is “stimulates” and the “secretion of β-endorphin (β-END-LI)” value is given as “stimulates”.

For “H-Ser-Gln-Glu-Pro-Pro-Ile-Ser-Leu-Asp-CML-Thr-Leu-Glu-Leu -Leu-Arg-Glu-Met-Leu-Glu-Met-Ala-Arg-Ala-Glu-Gln-Glu-Ala -Glu-Gln-Ala-Ala-Leu-Asn-Arg-Leu-Tyr-Leu-Glu-Glu-Ala-NH2 [[Leu^12, Glu^13, Tyr^37]-AAHC]”, the “secretion of ACTH” value is “stimulates” and the “secretion of β-endorphin (β-END-LI)” value is “stimulates”.

“H-VSEPPISLDLTFHLLREVLEMARAEQLAQQAHSNRRLMEEI-NH2 [[Val^1, Ser^2, Arg^36, Glu^40]-rCRF]”: the “secretion of ACTH” value was “stimulates” and the “secretion of β-endorphin (β-END-LI)” value was “stimulates”.
